One experiment deals with T1, DYRK1A (Homo sapiens, UniProt Q13627).
T1 construct: endogenous in cells
In words: Kinobeads two-dose competition binding: DYRK1A. The following applies: read-out: Lestaurtinib Drugmatrix value, Gene Name DYRK1A, target DYRK1A; each column = one Lestaurtinib control replicate (batch_R1-R3).

Another experiment has as its target T2, EPHB1 (Homo sapiens, UniProt P54762).
T2 construct: endogenous in cells
T2 sequence (P54762 18-984): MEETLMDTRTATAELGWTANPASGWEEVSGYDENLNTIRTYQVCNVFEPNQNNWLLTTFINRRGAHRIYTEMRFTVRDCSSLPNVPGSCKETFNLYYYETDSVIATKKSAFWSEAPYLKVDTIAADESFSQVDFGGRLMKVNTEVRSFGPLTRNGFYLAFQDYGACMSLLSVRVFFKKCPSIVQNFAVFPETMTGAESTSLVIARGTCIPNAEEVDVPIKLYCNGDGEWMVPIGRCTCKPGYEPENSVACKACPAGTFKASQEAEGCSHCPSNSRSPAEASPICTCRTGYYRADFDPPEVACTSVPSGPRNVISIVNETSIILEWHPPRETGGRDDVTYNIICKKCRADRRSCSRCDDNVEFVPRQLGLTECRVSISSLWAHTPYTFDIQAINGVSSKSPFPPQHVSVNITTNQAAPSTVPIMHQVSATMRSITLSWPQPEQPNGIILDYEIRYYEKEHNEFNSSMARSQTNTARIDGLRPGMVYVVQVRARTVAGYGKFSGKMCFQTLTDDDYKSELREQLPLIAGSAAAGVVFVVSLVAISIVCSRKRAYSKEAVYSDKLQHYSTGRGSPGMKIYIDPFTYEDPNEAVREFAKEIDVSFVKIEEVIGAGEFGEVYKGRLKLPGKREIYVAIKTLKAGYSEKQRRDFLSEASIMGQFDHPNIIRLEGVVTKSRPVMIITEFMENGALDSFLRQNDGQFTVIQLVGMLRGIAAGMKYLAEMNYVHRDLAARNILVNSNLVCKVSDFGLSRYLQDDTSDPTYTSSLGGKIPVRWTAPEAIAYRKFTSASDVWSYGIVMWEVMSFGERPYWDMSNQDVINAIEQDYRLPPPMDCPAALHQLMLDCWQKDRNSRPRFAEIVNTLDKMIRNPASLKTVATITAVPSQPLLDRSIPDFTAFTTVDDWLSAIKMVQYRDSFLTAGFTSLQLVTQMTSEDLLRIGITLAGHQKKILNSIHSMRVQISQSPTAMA
In words: Kinobeads two-dose competition binding: EPHB1. The following applies: read-out: Lestaurtinib Drugmatrix value, Gene Name EPHB1; target EPHB1; each column = one Lestaurtinib control replicate (batch_R1-R3).

Experiment [1] deals with T3, endogenous kinases and other proteins enriched by Kinobeads from mixed cancer cell lysates (Homo sapiens, UniProt P11274).
T3 construct: endogenous in cells
In words: Kinobeads pulldown, full dose-response (eight doses).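 Note: competition with Kinobeads ε after inhibitor preincubation in lysate (5 mg/ml protein) for 45 min at 4 °C, DMSO control, doses 0.3–1,000 nM, label-free LC–MS/MS quantification.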 In kind it is binding. The following applies: target BCR.

Experiment [2] addresses T4, endogenous kinases and other proteins enriched by Kinobeads from mixed cancer cell lysates (Homo sapiens, UniProt Q9P289).
T4 construct: endogenous in cells
The description is as above. It counts as binding. Particulars: target STK26.

The target in experiment [3] is T5, endogenous kinases and other proteins enriched by Kinobeads from mixed cancer cell lysates (Homo sapiens, UniProt O94806).
T5 construct: endogenous in cells
Described as above. In kind it is binding. Particulars: target PRKD3.

Experiment [4] has as its target T6, endogenous kinases and other proteins enriched by Kinobeads from mixed cancer cell lysates (Homo sapiens, UniProt O94804).
T6 construct: endogenous in cells
The experiment is described as above. In kind it is binding. Particulars: target STK10.

Experiment [5] has as its target T7, endogenous kinases and other proteins enriched by Kinobeads from mixed cancer cell lysates (Homo sapiens, UniProt P27448).
T7 construct: endogenous in cells
The experiment is described as above. In kind it is binding. The following applies: target MARK3.

The target in experiment [6] is T8, endogenous kinases and other proteins enriched by Kinobeads from mixed cancer cell lysates (Homo sapiens, UniProt O00444).
T8 construct: endogenous in cells
The description is as above. It counts as binding. Particulars: target PLK4.

In experiment [7] the target is T9, endogenous kinases and other proteins enriched by Kinobeads from mixed cancer cell lysates (Homo sapiens, UniProt Q6ZSR9).
T9 construct: endogenous in cells
The description is as above. In kind it is binding. The following applies: target Q6ZSR9.

The target in experiment [8] is T10, endogenous kinases and other proteins enriched by Kinobeads from mixed cancer cell lysates (Homo sapiens, UniProt O14965).
T10 construct: endogenous in cells
The experiment is described as above. In kind it is binding. Particulars: target AURKA.

Experiment [9] concerns the target T11, endogenous kinases and other proteins enriched by Kinobeads from mixed cancer cell lysates (Homo sapiens, UniProt Q9BZL6).
T11 construct: endogenous in cells
The experiment is described as above. The following applies: target PRKD2. In kind it is binding.

Experiment [10] deals with T12, endogenous kinases and other proteins enriched by Kinobeads from mixed cancer cell lysates (Homo sapiens, UniProt O15530).
T12 construct: endogenous in cells
Described as above. It counts as binding. Particulars: target PDPK1;PDPK2P.

Experiment [11] concerns the target T13, endogenous kinases and other proteins enriched by Kinobeads from mixed cancer cell lysates (Homo sapiens, UniProt Q13873).
T13 construct: endogenous in cells
The experiment is described as above. It counts as binding. Particulars: target BMPR2.

In experiment [12] the target is T14, endogenous kinases and other proteins enriched by Kinobeads from mixed cancer cell lysates (Homo sapiens, UniProt Q96PY6).
T14 construct: endogenous in cells
The description is as above. In kind it is binding. Particulars: target NEK1.

Experiment [13] deals with T15, endogenous kinases and other proteins enriched by Kinobeads from mixed cancer cell lysates (Homo sapiens, UniProt P37173).
T15 construct: endogenous in cells
The experiment is described as above. It counts as binding. The following applies: target TGFBR2; read-out: apparent Kd.

The target in experiment [14] is T16, endogenous kinases and other proteins enriched by Kinobeads from mixed cancer cell lysates (Homo sapiens, UniProt Q13043).
T16 construct: endogenous in cells
The description is as above. It counts as binding. Particulars: target STK4.

Experiment [15] addresses T17, endogenous kinases and other proteins enriched by Kinobeads from mixed cancer cell lysates (Homo sapiens, UniProt Q15831).
T17 construct: endogenous in cells
Described as above. Particulars: target STK11. It counts as binding.

The target in experiment [16] is T18, endogenous kinases and other proteins enriched by Kinobeads from mixed cancer cell lysates (Homo sapiens, UniProt Q13188).
T18 construct: endogenous in cells
The description is as above. In kind it is binding. The following applies: target STK3.

Experiment [17] addresses T19, endogenous kinases and other proteins enriched by Kinobeads from mixed cancer cell lysates (Homo sapiens, UniProt P35916).
T19 construct: endogenous in cells
The experiment is described as above. It counts as binding. The following applies: target FLT4.

The target of experiment [18] is T20, endogenous kinases and other proteins enriched by Kinobeads from mixed cancer cell lysates (Homo sapiens, UniProt Q12851).
T20 construct: to maximize the representation of endogenous proteins; endogenous in cells
The experiment is described as above. In kind it is binding. Particulars: target MAP4K2.

T20 sequence (Q12851 whole entry): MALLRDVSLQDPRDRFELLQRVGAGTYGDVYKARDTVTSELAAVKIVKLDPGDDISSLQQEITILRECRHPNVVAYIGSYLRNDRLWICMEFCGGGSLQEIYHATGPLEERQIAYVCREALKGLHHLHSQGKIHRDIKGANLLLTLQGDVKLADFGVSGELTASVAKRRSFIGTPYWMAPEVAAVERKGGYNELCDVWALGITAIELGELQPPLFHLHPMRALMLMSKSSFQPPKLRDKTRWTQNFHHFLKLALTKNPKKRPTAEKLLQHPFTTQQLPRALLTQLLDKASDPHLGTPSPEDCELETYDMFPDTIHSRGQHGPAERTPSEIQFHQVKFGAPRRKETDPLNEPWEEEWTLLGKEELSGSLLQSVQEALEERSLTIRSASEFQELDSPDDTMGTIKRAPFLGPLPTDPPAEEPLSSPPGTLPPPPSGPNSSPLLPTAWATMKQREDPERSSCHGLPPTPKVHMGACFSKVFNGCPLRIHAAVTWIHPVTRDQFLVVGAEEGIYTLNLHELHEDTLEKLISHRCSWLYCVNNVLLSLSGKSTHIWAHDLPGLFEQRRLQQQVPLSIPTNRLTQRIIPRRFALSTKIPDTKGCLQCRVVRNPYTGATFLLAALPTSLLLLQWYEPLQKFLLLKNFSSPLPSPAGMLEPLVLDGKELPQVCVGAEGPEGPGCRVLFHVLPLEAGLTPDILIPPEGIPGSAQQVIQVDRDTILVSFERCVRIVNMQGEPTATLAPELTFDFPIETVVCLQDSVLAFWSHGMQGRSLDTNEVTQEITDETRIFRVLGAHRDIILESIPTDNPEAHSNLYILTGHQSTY
T8 sequence (O00444 whole entry): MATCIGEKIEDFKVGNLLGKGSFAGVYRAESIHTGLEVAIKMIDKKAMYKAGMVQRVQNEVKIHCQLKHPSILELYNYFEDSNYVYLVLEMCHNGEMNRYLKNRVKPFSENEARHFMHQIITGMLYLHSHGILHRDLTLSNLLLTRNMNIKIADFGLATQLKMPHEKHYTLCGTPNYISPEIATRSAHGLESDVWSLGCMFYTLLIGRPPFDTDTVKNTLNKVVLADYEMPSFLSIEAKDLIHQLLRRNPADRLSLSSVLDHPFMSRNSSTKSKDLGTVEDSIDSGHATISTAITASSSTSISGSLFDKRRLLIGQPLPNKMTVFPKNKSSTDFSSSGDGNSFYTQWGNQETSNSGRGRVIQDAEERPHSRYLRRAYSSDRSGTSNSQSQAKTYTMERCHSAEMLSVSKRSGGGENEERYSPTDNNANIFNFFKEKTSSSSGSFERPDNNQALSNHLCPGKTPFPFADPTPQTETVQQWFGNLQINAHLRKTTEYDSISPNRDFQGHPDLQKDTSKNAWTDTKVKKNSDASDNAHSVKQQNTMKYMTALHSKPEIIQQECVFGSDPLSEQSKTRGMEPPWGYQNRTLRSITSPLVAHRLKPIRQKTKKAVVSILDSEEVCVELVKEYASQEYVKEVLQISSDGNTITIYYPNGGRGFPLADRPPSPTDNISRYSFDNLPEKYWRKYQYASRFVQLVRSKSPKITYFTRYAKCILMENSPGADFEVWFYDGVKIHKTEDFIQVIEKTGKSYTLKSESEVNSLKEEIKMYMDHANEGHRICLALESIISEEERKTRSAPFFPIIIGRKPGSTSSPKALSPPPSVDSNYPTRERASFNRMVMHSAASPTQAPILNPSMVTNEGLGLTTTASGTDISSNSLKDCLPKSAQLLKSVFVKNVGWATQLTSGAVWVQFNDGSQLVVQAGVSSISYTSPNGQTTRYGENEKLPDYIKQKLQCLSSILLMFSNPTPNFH
T10 sequence (O14965 whole entry): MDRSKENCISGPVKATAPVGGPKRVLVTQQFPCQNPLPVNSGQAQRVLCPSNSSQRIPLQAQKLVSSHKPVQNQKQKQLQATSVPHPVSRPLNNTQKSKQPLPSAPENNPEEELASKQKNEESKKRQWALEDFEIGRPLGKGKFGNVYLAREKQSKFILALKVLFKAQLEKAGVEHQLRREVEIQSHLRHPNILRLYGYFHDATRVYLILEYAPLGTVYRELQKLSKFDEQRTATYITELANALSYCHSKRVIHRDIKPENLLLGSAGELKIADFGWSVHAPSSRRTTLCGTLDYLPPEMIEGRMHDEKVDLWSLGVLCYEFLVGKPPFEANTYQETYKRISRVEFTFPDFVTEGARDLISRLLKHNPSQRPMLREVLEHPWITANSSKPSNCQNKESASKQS
T4 sequence (Q9P289 whole entry): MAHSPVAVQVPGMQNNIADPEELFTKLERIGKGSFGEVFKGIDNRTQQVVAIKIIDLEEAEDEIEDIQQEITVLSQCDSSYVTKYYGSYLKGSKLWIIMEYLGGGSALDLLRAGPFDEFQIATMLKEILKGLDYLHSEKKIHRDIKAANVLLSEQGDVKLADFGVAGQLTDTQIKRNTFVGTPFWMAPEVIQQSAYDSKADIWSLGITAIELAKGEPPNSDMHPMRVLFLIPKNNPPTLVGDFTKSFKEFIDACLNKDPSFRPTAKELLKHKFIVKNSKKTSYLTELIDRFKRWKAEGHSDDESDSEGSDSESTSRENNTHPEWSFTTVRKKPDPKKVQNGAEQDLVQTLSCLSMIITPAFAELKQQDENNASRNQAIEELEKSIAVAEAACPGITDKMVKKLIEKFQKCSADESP
T3 sequence (P11274 whole entry): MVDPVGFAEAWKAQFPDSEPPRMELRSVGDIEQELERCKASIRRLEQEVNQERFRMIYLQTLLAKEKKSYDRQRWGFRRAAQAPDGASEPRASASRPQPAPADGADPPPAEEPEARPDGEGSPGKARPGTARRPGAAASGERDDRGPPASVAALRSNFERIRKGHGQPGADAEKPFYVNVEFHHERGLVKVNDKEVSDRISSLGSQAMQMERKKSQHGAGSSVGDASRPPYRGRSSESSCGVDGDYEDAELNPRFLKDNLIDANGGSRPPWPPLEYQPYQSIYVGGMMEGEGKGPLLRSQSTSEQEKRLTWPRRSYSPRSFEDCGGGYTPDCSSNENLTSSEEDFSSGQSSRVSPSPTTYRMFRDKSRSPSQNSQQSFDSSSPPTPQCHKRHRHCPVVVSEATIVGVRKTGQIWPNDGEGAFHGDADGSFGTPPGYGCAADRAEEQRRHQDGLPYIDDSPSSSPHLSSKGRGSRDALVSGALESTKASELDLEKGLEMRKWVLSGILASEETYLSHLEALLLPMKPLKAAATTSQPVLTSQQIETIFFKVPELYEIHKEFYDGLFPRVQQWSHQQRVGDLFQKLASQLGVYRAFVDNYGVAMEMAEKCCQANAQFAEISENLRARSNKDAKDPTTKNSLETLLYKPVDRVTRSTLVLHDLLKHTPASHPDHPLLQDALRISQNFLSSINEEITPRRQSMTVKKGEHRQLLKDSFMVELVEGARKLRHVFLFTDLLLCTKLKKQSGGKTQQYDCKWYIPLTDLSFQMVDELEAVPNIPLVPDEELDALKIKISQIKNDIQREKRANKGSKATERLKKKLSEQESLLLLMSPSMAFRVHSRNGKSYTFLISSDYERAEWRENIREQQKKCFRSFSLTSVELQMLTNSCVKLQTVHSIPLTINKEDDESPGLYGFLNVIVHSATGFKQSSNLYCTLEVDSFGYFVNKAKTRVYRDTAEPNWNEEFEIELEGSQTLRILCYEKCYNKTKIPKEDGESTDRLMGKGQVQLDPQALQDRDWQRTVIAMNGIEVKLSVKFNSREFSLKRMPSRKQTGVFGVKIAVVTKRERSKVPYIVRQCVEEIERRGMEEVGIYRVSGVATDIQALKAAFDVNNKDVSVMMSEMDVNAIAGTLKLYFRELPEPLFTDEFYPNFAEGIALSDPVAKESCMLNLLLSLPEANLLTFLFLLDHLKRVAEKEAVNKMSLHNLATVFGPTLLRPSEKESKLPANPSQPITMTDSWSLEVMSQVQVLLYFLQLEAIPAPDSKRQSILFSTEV
T7 sequence (P27448 whole entry): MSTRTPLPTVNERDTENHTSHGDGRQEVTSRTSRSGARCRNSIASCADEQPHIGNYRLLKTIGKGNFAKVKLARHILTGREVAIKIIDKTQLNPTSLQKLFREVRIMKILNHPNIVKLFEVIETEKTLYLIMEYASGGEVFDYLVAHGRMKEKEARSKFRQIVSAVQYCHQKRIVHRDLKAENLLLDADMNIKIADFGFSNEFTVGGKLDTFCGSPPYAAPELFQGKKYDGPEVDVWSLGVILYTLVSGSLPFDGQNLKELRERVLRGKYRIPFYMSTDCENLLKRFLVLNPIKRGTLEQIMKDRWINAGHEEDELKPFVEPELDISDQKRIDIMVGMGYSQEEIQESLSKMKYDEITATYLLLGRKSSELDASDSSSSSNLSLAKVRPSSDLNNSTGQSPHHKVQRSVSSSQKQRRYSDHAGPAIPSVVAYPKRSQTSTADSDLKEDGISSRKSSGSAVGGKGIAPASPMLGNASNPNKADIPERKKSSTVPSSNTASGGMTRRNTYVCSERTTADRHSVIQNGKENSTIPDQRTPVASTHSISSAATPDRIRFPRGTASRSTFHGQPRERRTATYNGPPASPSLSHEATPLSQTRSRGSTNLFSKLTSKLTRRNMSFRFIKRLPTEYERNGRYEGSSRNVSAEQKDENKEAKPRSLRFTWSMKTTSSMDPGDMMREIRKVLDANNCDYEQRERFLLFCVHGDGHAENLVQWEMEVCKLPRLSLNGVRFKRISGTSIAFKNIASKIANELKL
T17 sequence (Q15831 whole entry): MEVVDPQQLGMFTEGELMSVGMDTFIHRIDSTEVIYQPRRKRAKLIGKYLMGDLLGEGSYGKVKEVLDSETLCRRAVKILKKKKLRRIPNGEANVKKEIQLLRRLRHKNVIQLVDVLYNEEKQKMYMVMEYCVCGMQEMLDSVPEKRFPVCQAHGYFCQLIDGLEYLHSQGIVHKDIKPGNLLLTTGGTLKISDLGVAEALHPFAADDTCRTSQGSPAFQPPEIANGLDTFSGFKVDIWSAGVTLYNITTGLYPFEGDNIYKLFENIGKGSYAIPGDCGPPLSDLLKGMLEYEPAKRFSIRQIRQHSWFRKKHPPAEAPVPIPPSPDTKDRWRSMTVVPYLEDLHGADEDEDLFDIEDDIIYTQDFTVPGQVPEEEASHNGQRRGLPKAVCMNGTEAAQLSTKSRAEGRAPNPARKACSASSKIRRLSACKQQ

Turning to `C[C@]12O[C@H](C[C@]1(O)CO)n1c3ccccc3c3c4c(c5c6ccccc6n2c5c31)CNC4=O` [Lestaurtinib], the potency estimated from few doses at DYRK1A is 0.82 µM; at EPHB1, 0.403 µM.

Take `Cn1cc(-c2nc(N[C@@H]3CCCC[C@@H]3N)c(F)c3c2C(=O)NC3)cn1` [TAK659]: the EC50 (as a rule, the concentration that produces a half-maximal response) in experiment [1] stood at 1.02 µM; in experiment [2] it was 0.363 µM; in experiment [3], 1.41 µM; in experiment [4], 0.725 µM; in [5], 0.68 µM; in [6], 0.148 µM. Moreover, the EC50 in experiment [7] came to 0.566 µM; in experiment [8] it was 1.28 µM; in experiment [9] it was 1.01 µM; in [10], 0.639 µM; in experiment [11], 0.325 µM; in experiment [12], 0.589 µM. For the same compound, the EC50 in experiment [14] stood at 0.628 µM; in experiment [15], 1.15 µM; in [16], 0.742 µM; in experiment [17], 0.564 µM; in experiment [18], 0.595 µM. The Kd in [1] (read-out: apparent Kd) came out at 0.528 µM; in experiment [2] (read-out: apparent Kd) it was 0.275 µM; in [3] (read-out: apparent Kd), 1.18 µM; in experiment [4] (read-out: apparent Kd) it was 0.725 µM; in [5] (read-out: apparent Kd), 0.67 µM; in experiment [6] (read-out: apparent Kd), 0.0772 µM. The Kd in experiment [7] (read-out: apparent Kd) amounted to 0.493 µM; in experiment [8] (read-out: apparent Kd), 0.59 µM; in experiment [9] (read-out: apparent Kd), 0.895 µM; in [10] (read-out: apparent Kd), 0.639 µM; in [11] (read-out: apparent Kd), 0.257 µM; in experiment [12] (read-out: apparent Kd), 0.529 µM. For the same compound, the Kd in experiment [13] stood at 2.96 µM; in experiment [14] (read-out: apparent Kd) it was 0.567 µM; in experiment [15] (read-out: apparent Kd) it was 1.15 µM; in experiment [16] (read-out: apparent Kd), 0.683 µM; in experiment [17] (read-out: apparent Kd), 0.308 µM; in experiment [18] (read-out: apparent Kd) it was 0.459 µM.
